Here are results for 4 compounds from patent publication US5177106A, “4-amino substituted phenoxyalkyl carboxylic acid, ester, and alcohol derivatives as antihypercholesterolemic and antiatherosclerotic agents” (Warner-Lambert Company, priority 1991, dated 1993).

Experiment [1] deals with T1, acyl-CoA:cholesterol acyltransferase (ACAT) (Oryctolagus cuniculus, UniProt G1SFD9).
T1 construct: rabbit intestinal microsomal fraction; from tissue; host or cells: rabbit intestine, microsomal fraction
T1 sequence (G1SFD9 1-524): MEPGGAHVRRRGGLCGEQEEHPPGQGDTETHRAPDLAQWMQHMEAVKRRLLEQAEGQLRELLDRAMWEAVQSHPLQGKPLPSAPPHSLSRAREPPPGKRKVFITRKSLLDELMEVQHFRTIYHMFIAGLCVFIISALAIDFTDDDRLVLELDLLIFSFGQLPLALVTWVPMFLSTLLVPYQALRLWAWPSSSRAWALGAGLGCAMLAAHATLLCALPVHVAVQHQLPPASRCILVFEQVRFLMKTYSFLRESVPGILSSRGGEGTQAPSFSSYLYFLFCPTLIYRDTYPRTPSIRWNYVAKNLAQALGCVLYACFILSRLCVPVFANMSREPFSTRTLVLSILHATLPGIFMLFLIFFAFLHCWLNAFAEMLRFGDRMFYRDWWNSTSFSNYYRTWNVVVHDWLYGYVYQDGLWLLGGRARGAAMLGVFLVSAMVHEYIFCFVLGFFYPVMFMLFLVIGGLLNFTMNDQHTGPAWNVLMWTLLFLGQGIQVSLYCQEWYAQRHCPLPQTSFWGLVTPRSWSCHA
Description: Inhibition of cholesterol esterification by acyl-CoA:cholesterol acyltransferase (ACAT), in vitro, rabbit intestinal microsomal fraction. Type of experiment: biochemical. The note with it: endogenous cholesterol and exogenous 14C-oleoyl-CoA, read-out: IC50 (concentration of test compound required to inhibit cholesteryl oleate formation to 50% of control). As for the experimental part:
The compounds of the present invention were tested for their ability to inhibit the esterification of cholesterol by the enzyme acyl-CoA:cholesterol acyltransferase (ACAT). The data in the table below is expressed as IC50 values, i.e., the concentration of test compound required to inhibit cholesteryl oleate formation to 50% of control.
The in vitro test employed is more fully described in Field, F. J. and Salome, R. G., Biochemica et Biophysica Acta, Volume 712, pages 557-570 (1982). The assay evaluates the ability of a test compound to inhibit the esterification of cholesterol using endogenous cholesterol of a rabbit intestinal microsomal fraction and exogenous ^14 C-oleoyl-CoA as reactants.

Experiment [2] in a line: Elevation of HDL by test drug relative to gemfibrozil (test procedure of U.S. Pat. No. 4,413,011). The note with it: ratio; 50 mg/kg test drug vs 50 mg/kg gemfibrozil; 1 = as effective as gemfibrozil. The class given is in vivo. As for the experimental part:
Additionally, the elevation of HDL is reported in the table as a ratio of the elevation of HDL effected by a dose of 50 mg/kg of the test drug divided by the elevation of HDL effected by a 50 mg/kg dose of gemfibrozil which is used as a control in each experiment. [formula] Thus, a figure of 1 means that the test drug was as effective as gemfibrozil in elevating HDL. […] The test procedure is described in U.S. Pat. No. 4,413,011, which is herein incorporated by reference.

The conditions of experiment [3]: patients with elevated cholesterol levels; 5-year trial; cited from earlier work.

Consider `COC(=O)C(C)(C)CCCOc1cc(C)c(NC(=S)Nc2ccccc2)cc1C` [Example 16, 5-[2,5-Dimethyl-4-[[(phenylamino)-thioxomethyl]amino]phenoxy]-2,2-dimethylpentanoic acid, methyl ester], for which the IC50 in experiment [1] is 28 µM. For the same compound, in experiment [2], the “Δ HDL Test Compound / Δ HDL Gemfibrozil” value is on record as 0.9. On to `Cc1ccc(C)c(OCCCC(C)(C)C(=O)O)c1` [gemfibrozil], for which the “reduction of the rate of heart attack and sudden cardiac death” value in experiment [3] is 34%. With `CCCCCCCCCCCCCCCCS(=O)(=O)Nc1cc(C)c(OCCCC(C)(C)C(=O)OC)cc1C` [Example 5, 5-[4-[(Hexadecylsulfonyl)amino]-2,5-dimethylphenoxy]-2,2-dimethylpentanoic acid, methyl ester], in experiment [1], the IC50 came to 74 µM. The “Δ HDL Test Compound / Δ HDL Gemfibrozil” value in experiment [2] amounted to 0.8. For `COC(=O)C(C)(C)CCCOc1cc(C)c(NS(C)(=O)=O)cc1C` [Example 12], the IC50 in experiment [1] turned out to be 69 µM. Further, the “Δ HDL Test Compound / Δ HDL Gemfibrozil” value in experiment [2] was found to be 1.5.
